We go through 41 substances from patent US20260347399A1, “BRAIN PENETRATING PEPTIDES AND METHODS OF USE” (priority 2022, published 2026).

The test system of assay [1] is mouse brain. In words: In vivo phage display with CX4CYX library. The following applies: for R1 reads: round 1; for R3 reads: round 3; for R3 > R1 (ratio of sequencing reads between round 3 and round 1): round 3 / round 1. The method, then:
In vivo phage display with CX4CYX library was performed in three selection rounds. Phage library was injected intravenously to Balb/c mice and allowed to circulate for one hour. After circulation, the animals were anesthetized and perfused intracardially with acid and detergent buffers. Brain and control organs were collected and homogenized in 1% NP40-LB. Bound phages were rescued by amplification in E. coli and their genomic DNA was sequenced by Ion Torrent next generation DNA sequencing system.
A novel phage library CX4CYX was constructed based on the alanine-leucine screen to find new brain homing peptides). This knowledge directed us to construct a novel phage library CX4CYX (X—any amino acid), where Cys1, Cys6 and Tyr7 remained in their intact positions, and the four amino acid variable-domain laid between the cysteines, and one amino acid variability after Tyr7. Three rounds of phage bio-panning was performed to allow enrichment of peptides in the brain. Again acid and detergent buffers were used for perfusion to remove non-specifically bound phages from the brain after systemic administration of phage library (round 1) and recovered brain phage pools (round 2 and 3). HTS reads from round 1 to round 3 indicated decent enrichment of in-frame peptides in the brain (Table 6).

Assay [2] concerns mouse brain. In words: In vivo T7 phage display (biopanning), high throughput sequencing of brain phage. Particulars: for reads associated with each sequence (Ion torrent sequencing): Round 5 of biopanning. The method, then: The in vivo phage screening in male Balb/C mice was performed as described in (Põšnograjeva et al., 2022) with some alterations. To reduce the background of unspecific phages in the brain, 4.5×10^10 pfu of UV-inactivated control insertless T7 phage was injected i.p. 30 min later, CX7C naïve T7 phage library or the phage pool recovered from the brain in the previous round of biopanning was injected i.v. and allowed to circulate for 30 min. The mice were anesthetized and perfused with PBS intracardially. The brain was removed, homogenized in LB-NP40 (1%) and the phages in the lysate were rescued by amplification in semi-solid media in E. coli strain BLT5403. Peptide-encoding portion of the phage genome was sequenced using Ion Torrent high throughput sequencing (HTS). 8 mice were used in the first round of biopanning (R1) to prevent creating a narrow bottleneck of selection in the first round of biopanning. 2 mice were used for all subsequent rounds (R2 . . . . R5). R5 was repeated with the additional step of isolating brain CD31+ cells from CD31− cells by magnetic-activated cell sorting. The mouse brains were dissociated using Dounce tissue grinder and Adult Brain Dissociation Kit (#130-107-677) and CD31+ cells were isolated from all the other brain cells using CD31 MicroBeads (#130-097-418) following the manufacturer's protocol for isolation and cultivation of endothelial cells from adult mouse brain. The cells were lysed in LB-NP40 (1%) and the samples were further processed following the same steps with samples of whole brain.
To identify peptides that accumulate in mouse brain, cross the blood-brain barrier and reach the brain parenchyma cells, in vivo T7 phage display was used. For round 1 of biopanning, naïve CX7C T7 peptide-phage library was injected into mice i.v. The phages accumulated in brain were rescued to be used as input in a subsequent round of biopanning. A consistent increase in the % of injected phage accumulating in the brain tissue through rounds 1 . . . 5 of biopanning was observed (FIG. 1A; To assess the % of injected phage that accumulated in the brain throughout the five rounds of biopanning (R1-R5), Peptide-phages were injected i.v. and following 30 min circulation mice were perfused with PBS. The phages rescued from the brain were reamplified and injected for a subsequent round of biopanning). The 5th round of bio-panning was then repeated with an additional step of isolating CD31+ brain endothelial cells from CD31− brain cells to detect peptides that not only accumulate in the brain, but also penetrate the endothelial cell layer lining the brain blood vessels (FIG. 1B; The total amount of phage rescued from mouse brain CD31+ and CD31− cell fractions after R5 with the additional step of isolating brain endothelial (CD31+) cells from all the other brain cells (parenchyma cells; CD31−)).
A complete listing of peptides that were identified from Ion Torrent high throughput sequencing from bio-panning Round 5 is set forth in Table 1B.

Where [3] appears, read: mouse 325, total reads in sample 135061.
Setting [4] is: mouse 326, total reads in sample 218048.

Take CTGSLCY: in the assay with mouse brain [1], the R1 reads is recorded as 64 reads; the R3 reads is recorded as 43464 reads; the “R3 > R1 (ratio of sequencing reads between round 3 and round 1)” value worked out at 679.

Turning to MLGDPILASRRVISRAKLA, the “reads associated with each sequence (Ion torrent sequencing)” value (“reads associated with each sequence” below) turned out to be 150 reads in the assay on mouse brain [2] (setting [3]) and 172 reads in the assay with mouse brain [2] (setting [4]).

As for CEGSLCY, in the assay with mouse brain [1], the R1 reads is given as 3 reads; the R3 reads amounted to 2833 reads; the “R3 > R1 (ratio of sequencing reads between round 3 and round 1)” value came out at 944.

Regarding MIGDANSSS, the “reads associated with each sequence” value in the assay on mouse brain [2] (setting [3]) was found to be 2370 reads; in the assay on mouse brain [2] (setting [4]), 2197 reads.

In the case of CVGTLCY, in the assay with mouse brain [1], the R1 reads is on record as 21 reads; the R3 reads is reported as 11631 reads; the “R3 > R1 (ratio of sequencing reads between round 3 and round 1)” value worked out at 554.

Consider MLGDPILASRAVISRAKLAAHSS, for which the “reads associated with each sequence” value came out at 84 reads in the assay with mouse brain [2] (setting [3]) and 142 reads with mouse brain [2] (setting [4]).

For the substance MLGDPNS, the “reads associated with each sequence” value with mouse brain [2] (setting [3]) turned out to be 57 reads; with mouse brain [2] (setting [4]) it was 84 reads.

Regarding MLGDPILASRRVISRAKLAAVLE, the “reads associated with each sequence” value amounted to 51 reads in the assay on mouse brain [2] (setting [3]) and 292 reads in the assay on mouse brain [2] (setting [4]).

For the substance MLGDPNSCTEGTRVTC, the results for the “reads associated with each sequence” value in the assay on mouse brain [2] (setting [3]) and in the assay on mouse brain [2] (setting [4]) were 1533 reads and 2339 reads, respectively.

Turning to MLGDPILASRRVISRAKLAAAFE, the “reads associated with each sequence” value in the assay with mouse brain [2] (setting [3]) stood at 46 reads; with mouse brain [2] (setting [4]), 269 reads.

Regarding MLGDPILASERVISRAKLAAASS, the “reads associated with each sequence” value is given as 47 reads in the assay with mouse brain [2] (setting [3]) and 169 reads in the assay on mouse brain [2] (setting [4]).

With MLGDPNSSSVDKLAAALE, the “reads associated with each sequence” value in the assay on mouse brain [2] (setting [3]) is 674 reads; in the assay on mouse brain [2] (setting [4]) it was 588 reads.

MLGDPILASRAVISRAKLAAA: the “reads associated with each sequence” value in the assay on mouse brain [2] (setting [3]) came to 350 reads; with mouse brain [2] (setting [4]), 399 reads.

For MLGDPILASRAVISRAKLAAALS, the “reads associated with each sequence” value in the assay with mouse brain [2] (setting [3]) is reported as 54 reads; with mouse brain [2] (setting [4]), 194 reads.

In the case of CVGQLCY, in the assay on mouse brain [1], the R1 reads is 12 reads; the R3 reads was found to be 5355 reads; the “R3 > R1 (ratio of sequencing reads between round 3 and round 1)” value came out at 446.

For the substance MLGDPILASRRVISRAK, the “reads associated with each sequence” value with mouse brain [2] (setting [3]) was 67 reads; with mouse brain [2] (setting [4]), 100 reads.

Regarding MLGDPILASRRVISRAKLAAALD, the “reads associated with each sequence” value in the assay on mouse brain [2] (setting [3]) turned out to be 34 reads; with mouse brain [2] (setting [4]) it was 119 reads.

Regarding MLGDPNIVAKLAAALE, the “reads associated with each sequence” value with mouse brain [2] (setting [3]) was 271 reads; in the assay on mouse brain [2] (setting [4]), 368 reads.

Turning to CAGSMCY, in the assay with mouse brain [1], the R1 reads is 14 reads; the R3 reads is on record as 9077 reads; the “R3 > R1 (ratio of sequencing reads between round 3 and round 1)” value is given as 648.

On to MLGDPILASRRVISRAKLAAALE [Pep1], for which the “reads associated with each sequence” value stood at 80229 reads in the assay on mouse brain [2] (setting [3]) and 132268 reads in the assay with mouse brain [2] (setting [4]). Moreover, in the assay on mouse brain [2] (whole brain after round 5, CD31+ and CD31- brain cell fractions), the “representation of peptide sequence in brain” value was “most represented peptide sequence in the whole brain after round 5 of bio-panning as well as in CD31+ and CD31− brain cell fractions”.

For MIGDPILAGRRIVSRAKLAAALE, the “reads associated with each sequence” value came to 315 reads in the assay with mouse brain [2] (setting [3]) and 480 reads in the assay on mouse brain [2] (setting [4]).

As for CEGALCY, in the assay on mouse brain [1], the R1 reads stood at 17 reads; the R3 reads turned out to be 39863 reads; the “R3 > R1 (ratio of sequencing reads between round 3 and round 1)” value is reported as 2345.

Regarding MLGDPILASRRVISRAKLAATLE, the “reads associated with each sequence” value in the assay on mouse brain [2] (setting [3]) is listed as 39 reads; in the assay on mouse brain [2] (setting [4]), 143 reads.

As to CQGSNCY, in the assay with mouse brain [1], the R1 reads was 4 reads; the R3 reads is 1202 reads; the “R3 > R1 (ratio of sequencing reads between round 3 and round 1)” value was 301.

Take MIGDPILASRRVISR: the figures for the “reads associated with each sequence” value in the assay on mouse brain [2] (setting [3]) and in the assay on mouse brain [2] (setting [4]) were 77 reads and 76 reads, respectively.

As for MIGDPILASRRVISRAKLAA, the figures for the “reads associated with each sequence” value in the assay with mouse brain [2] (setting [3]) and with mouse brain [2] (setting [4]) were 254 reads and 286 reads, respectively.

As for CACPLCY [CAGPLCY], in the assay on mouse brain [1], the R1 reads was 3 reads; the R3 reads is reported as 1232 reads; the “R3 > R1 (ratio of sequencing reads between round 3 and round 1)” value turned out to be 411.

For the substance MLGDPILASRRVISRAKLADALE, the “reads associated with each sequence” value in the assay with mouse brain [2] (setting [3]) is given as 142 reads; in the assay with mouse brain [2] (setting [4]) it was 359 reads.

As for CVCANCY [CVGANCY], in the assay on mouse brain [1], the R1 reads stood at 24 reads; the R3 reads amounted to 7359 reads; the “R3 > R1 (ratio of sequencing reads between round 3 and round 1)” value is listed as 307.

On to MLGDPILASRRVISRAKLAAALG, for which the “reads associated with each sequence” value was determined as 33 reads in the assay on mouse brain [2] (setting [3]) and 108 reads in the assay on mouse brain [2] (setting [4]).

Take CTGSMCY: in the assay on mouse brain [1], the R1 reads is reported as 3 reads; the R3 reads came out at 841 reads; the “R3 > R1 (ratio of sequencing reads between round 3 and round 1)” value stood at 280.

In the case of IMLGDPILASRRVISRAKL, the entries for the “reads associated with each sequence” value in the assay on mouse brain [2] (setting [3]) and in the assay on mouse brain [2] (setting [4]) were 68 reads and 116 reads, respectively.

Consider MLGDPNSC, for which the results for the “reads associated with each sequence” value with mouse brain [2] (setting [3]) and in the assay on mouse brain [2] (setting [4]) were 84 reads and 216 reads, respectively.

On to MLGDPNLARRRVISRAKLAAAL, for which the entries for the “reads associated with each sequence” value in the assay with mouse brain [2] (setting [3]) and with mouse brain [2] (setting [4]) were 89 reads and 188 reads, respectively.

Turning to CKGSNCY, in the assay on mouse brain [1], the R1 reads was 4 reads; the R3 reads is reported as 2037 reads; the “R3 > R1 (ratio of sequencing reads between round 3 and round 1)” value was found to be 509.

Consider MLGDPNLARRRVISRAKLAAALE, for which the “reads associated with each sequence” value is 4716 reads with mouse brain [2] (setting [3]) and 8755 reads in the assay on mouse brain [2] (setting [4]).

For MIGDPNFAIRAVISRAKLAAALE, the “reads associated with each sequence” value in the assay with mouse brain [2] (setting [3]) was 543 reads; in the assay on mouse brain [2] (setting [4]) it was 825 reads.

For MLGDPILASRRVISRAKLEAALE, the “reads associated with each sequence” value with mouse brain [2] (setting [3]) is 129 reads; in the assay with mouse brain [2] (setting [4]), 251 reads.

As to CQGALCY, in the assay with mouse brain [1], the R1 reads was 27 reads; the R3 reads is 8612 reads; the “R3 > R1 (ratio of sequencing reads between round 3 and round 1)” value came to 319.

As to MLGDPILASRRVISRAKLAAAL, the “reads associated with each sequence” value stood at 1495 reads with mouse brain [2] (setting [3]) and 2334 reads in the assay on mouse brain [2] (setting [4]).

For the substance CMGDLCY, in the assay with mouse brain [1], the R1 reads was 3 reads; the R3 reads is reported as 837 reads; the “R3 > R1 (ratio of sequencing reads between round 3 and round 1)” value was found to be 279.
